{"source": "patent US20140288136A1", "about": "“METHODS AND USES OF CYTOCHROME P450 INHIBITORS” (ANGION BIOMEDICA CORP, priority 2009, published 2014)", "origin": "cited, not measured here", "system": "hepatitis C", "conditions": "chronic hepatitis C infection", "note": "Where two headings read alike, the source gives them in different places."}
{"substance": "interferon", "values": [{"measurement": "response", "setting": "in combination with ribavirin", "result": "~50", "unit": "%"}, {"measurement": "response", "setting": "used alone", "result": "~20", "unit": "%"}]}
